# From ChEMBL document CHEMBL6182870, “Synthesis and biological activity of 1H-pyrrolo[3,2-g]isoquinolines as Haspin kinase inhibitors” (Bioorg Med Chem, 2025)
# What was measured:
# [1] = molecular target: T1, Serine/threonine-protein kinase haspin (Homo sapiens) (UniProt Q8TF76); experiment: Inhibition of recombinant human haspin kinase domain (470 to 798 residues) extracted from bacteria using histone H3 (1 to 21) peptide as substrate assessed as residual activity at 10 uM incubated for 30 mins in presence of ATP by ADP-Glo kinase assay relative to control
# T1 sequence (whole entry): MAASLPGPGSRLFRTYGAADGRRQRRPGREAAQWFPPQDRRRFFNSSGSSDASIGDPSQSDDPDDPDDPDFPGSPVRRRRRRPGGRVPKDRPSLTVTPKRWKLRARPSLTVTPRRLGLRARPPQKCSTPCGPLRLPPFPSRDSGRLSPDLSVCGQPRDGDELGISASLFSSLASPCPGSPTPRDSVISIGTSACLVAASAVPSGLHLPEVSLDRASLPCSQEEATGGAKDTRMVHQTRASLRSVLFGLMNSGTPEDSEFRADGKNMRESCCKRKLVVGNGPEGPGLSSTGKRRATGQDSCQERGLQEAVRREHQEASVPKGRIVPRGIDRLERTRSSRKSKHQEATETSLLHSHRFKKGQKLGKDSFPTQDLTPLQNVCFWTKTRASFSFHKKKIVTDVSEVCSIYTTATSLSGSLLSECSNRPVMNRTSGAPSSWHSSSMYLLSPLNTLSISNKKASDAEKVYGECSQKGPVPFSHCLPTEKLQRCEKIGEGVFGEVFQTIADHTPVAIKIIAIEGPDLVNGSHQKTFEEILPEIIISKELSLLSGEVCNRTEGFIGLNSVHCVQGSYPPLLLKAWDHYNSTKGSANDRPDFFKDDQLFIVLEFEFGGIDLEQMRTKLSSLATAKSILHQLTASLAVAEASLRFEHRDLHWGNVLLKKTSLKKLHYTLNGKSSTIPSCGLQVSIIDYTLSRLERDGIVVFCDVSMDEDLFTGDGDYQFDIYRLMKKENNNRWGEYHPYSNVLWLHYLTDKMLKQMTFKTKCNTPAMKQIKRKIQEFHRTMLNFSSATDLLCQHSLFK
# [2] = molecular target: T1, Serine/threonine-protein kinase haspin (Homo sapiens); experiment: Inhibition of recombinant human haspin kinase domain (470 to 798 residues) extracted from bacteria using histone H3 (1 to 21) peptide as substrate assessed as residual activity at 1 uM incubated for 30 mins in presence of ATP by ADP-Glo kinase assay relative to control
# [3] = molecular target: T2, Serine/threonine-protein kinase haspin (Homo sapiens, UniProt Q8TF76); experiment: Inhibition of recombinant human haspin kinase domain (470 to 798 residues) extracted from bacteria using histone H3 (1 to 21) peptide as substrate incubated for 30 mins in presence of ATP by ADP-Glo kinase assay
# T2 sequence (Q8TF76 whole entry): T1 sequence (whole entry)
# [4] = molecular target: Dual specificity tyrosine-phosphorylation-regulated kinase 1A (Rattus norvegicus) (UniProt Q63470); experiment: Inhibition of recombinant rat DYRK1A kinase domain (1 to 499 residues) extracted from bacteria using KKISGRLSPIMTEQ as substrate assessed as enzyme residual activity at 10 uM incubated for 30 mins in presence of ATP by ADP-Glo kinase assay relative to control
# [5] = molecular target: Dual specificity protein kinase CLK1 (Mus musculus) (UniProt P22518); experiment: Inhibition of recombinant mouse CLK1 extracted from bacteria using GRSRSRSRSRSR as substrate assessed as enzyme residual activity at 10 uM incubated for 30 mins in presence of ATP by ADP-Glo kinase assay relative to control
# Dual specificity protein kinase CLK1 (Mus musculus), sequence (P22518 whole entry, looked up, the tested form may be a part): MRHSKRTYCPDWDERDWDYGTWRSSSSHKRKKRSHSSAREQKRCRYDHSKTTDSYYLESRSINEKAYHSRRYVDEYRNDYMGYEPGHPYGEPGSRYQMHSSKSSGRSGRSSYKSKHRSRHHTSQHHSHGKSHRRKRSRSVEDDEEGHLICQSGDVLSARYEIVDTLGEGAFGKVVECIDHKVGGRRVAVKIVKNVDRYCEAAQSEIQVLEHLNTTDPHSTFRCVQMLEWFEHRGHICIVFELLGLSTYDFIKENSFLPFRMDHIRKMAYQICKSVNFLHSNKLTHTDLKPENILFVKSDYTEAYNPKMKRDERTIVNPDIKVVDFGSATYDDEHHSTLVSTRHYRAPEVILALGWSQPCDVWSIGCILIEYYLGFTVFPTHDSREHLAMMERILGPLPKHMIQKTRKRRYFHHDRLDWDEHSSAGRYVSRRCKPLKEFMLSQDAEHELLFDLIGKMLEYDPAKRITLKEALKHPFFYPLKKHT
# [6] = molecular target: Dual specificity protein kinase CLK1 (Mus musculus) (UniProt P22518); experiment: Inhibition of recombinant mouse CLK1 extracted from bacteria using GRSRSRSRSRSR as substrate assessed as enzyme residual activity at 1 uM incubated for 30 mins in presence of ATP by ADP-Glo kinase assay relative to control
# [7] = molecular target: Dual specificity tyrosine-phosphorylation-regulated kinase 1A (Rattus norvegicus) (UniProt Q63470); experiment: Inhibition of recombinant rat DYRK1A kinase domain (1 to 499 residues) extracted from bacteria using KKISGRLSPIMTEQ as substrate assessed as enzyme residual activity at 1 uM incubated for 30 mins in presence of ATP by ADP-Glo kinase assay relative to control
# [8] = Inhibition of recombinant human CDK9/Cyclin T extracted from baculovirus infected Sf9 cells using YSPTSPSYSPTSPSYSPTSPSKKKK as substrate assessed as enzyme residual activity at 10 uM incubated for 30 mins in presence of ATP by ADP-Glo kinase assay relative to control
# [9] = Inhibition of recombinant human CDK9/Cyclin T extracted from baculovirus infected Sf9 cells using YSPTSPSYSPTSPSYSPTSPSKKKK as substrate assessed as enzyme residual activity at 1 uM incubated for 30 mins in presence of ATP by ADP-Glo kinase assay relative to control
# [10] = molecular target: Glycogen synthase kinase-3 beta (Homo sapiens) (UniProt P49841); experiment: Inhibition of recombinant human GSK3beta extracted from baculovirus infected Sf9 cells using GS-1 (YRRAAVPPSPSLSRHSSPHQSpEDEEE) peptide as substrate assessed as enzyme residual activity at 10 uM incubated for 30 mins in presence of ATP by ADP-Glo kinase assay relative to control
# Glycogen synthase kinase-3 beta (Homo sapiens), sequence (P49841 whole entry, looked up, canonical isoform): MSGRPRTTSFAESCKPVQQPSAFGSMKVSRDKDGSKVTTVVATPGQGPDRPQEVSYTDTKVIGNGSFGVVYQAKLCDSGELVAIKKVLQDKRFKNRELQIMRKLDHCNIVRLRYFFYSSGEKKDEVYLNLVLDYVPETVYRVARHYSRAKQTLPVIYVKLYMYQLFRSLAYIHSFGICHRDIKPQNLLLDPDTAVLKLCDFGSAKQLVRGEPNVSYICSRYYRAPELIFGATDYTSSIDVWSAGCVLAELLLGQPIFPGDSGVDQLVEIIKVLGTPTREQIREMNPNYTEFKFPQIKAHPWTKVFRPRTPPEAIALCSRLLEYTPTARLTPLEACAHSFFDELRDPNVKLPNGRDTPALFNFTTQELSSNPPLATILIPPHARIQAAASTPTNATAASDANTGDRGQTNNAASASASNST
# [11] = molecular target: Glycogen synthase kinase-3 beta (Homo sapiens) (UniProt P49841); experiment: Inhibition of recombinant human GSK3beta extracted from baculovirus infected Sf9 cells using GS-1 (YRRAAVPPSPSLSRHSSPHQSpEDEEE) peptide as substrate assessed as enzyme residual activity at 1 uM incubated for 30 mins in presence of ATP by ADP-Glo kinase assay relative to control
# [12] = molecular target: Casein kinase I isoform epsilon (Homo sapiens) (UniProt P49674); experiment: Inhibition of recombinant human CK1epsilon extracted from baculovirus infected Sf9 cells using RRKHAAIGSpAYSITA peptide as substrate assessed as enzyme residual activity at 10 uM incubated for 30 mins in presence of ATP by ADP-Glo kinase assay relative to control
# Casein kinase I isoform epsilon (Homo sapiens), sequence (P49674 whole entry, looked up, canonical isoform): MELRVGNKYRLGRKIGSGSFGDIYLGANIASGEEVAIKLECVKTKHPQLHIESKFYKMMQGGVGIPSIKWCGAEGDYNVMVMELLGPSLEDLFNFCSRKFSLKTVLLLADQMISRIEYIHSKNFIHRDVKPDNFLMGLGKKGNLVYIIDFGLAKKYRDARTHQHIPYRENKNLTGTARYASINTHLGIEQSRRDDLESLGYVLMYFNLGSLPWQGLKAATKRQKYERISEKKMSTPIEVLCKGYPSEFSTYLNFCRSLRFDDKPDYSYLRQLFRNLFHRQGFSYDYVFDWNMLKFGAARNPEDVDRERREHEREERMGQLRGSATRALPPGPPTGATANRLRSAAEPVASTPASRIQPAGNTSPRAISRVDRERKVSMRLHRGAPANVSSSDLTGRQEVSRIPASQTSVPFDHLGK
# [13] = molecular target: Casein kinase I isoform epsilon (Homo sapiens) (UniProt P49674); experiment: Inhibition of recombinant human CK1epsilon extracted from baculovirus infected Sf9 cells using RRKHAAIGSpAYSITA peptide as substrate assessed as enzyme residual activity at 1 uM incubated for 30 mins in presence of ATP by ADP-Glo kinase assay relative to control
# [14] = molecular target: T3, Cyclin-dependent kinase 5/CDK5 activator 1 (Homo sapiens) (UniProt Q00535+Q15078); experiment: Inhibition of recombinant human CDK5/p25 extracted from bacteria using histone H1 as substrate assessed as enzyme residual activity at 10 uM incubated for 30 mins in presence of ATP by ADP-Glo kinase assay relative to control; format: protein-complex assay
# T3 sequence (Q00535 whole entry): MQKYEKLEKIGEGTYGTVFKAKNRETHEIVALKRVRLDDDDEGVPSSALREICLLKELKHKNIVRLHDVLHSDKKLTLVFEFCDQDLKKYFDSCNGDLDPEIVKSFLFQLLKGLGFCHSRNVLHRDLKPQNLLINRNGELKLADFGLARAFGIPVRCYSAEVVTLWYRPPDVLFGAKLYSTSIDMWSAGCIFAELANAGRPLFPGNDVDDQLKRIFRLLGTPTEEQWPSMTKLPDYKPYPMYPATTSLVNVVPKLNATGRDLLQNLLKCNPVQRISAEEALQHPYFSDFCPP
# T3 sequence (Q15078 99-307 partner limits assumed): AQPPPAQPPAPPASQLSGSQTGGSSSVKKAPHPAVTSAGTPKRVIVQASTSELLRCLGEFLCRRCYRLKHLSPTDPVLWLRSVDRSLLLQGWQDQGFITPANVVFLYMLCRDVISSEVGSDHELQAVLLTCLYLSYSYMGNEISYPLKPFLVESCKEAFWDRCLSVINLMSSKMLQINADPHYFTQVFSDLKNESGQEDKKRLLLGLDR
# [15] = molecular target: T3, Cyclin-dependent kinase 5/CDK5 activator 1 (Homo sapiens); experiment: Inhibition of recombinant human CDK5/p25 extracted from bacteria using histone H1 as substrate assessed as enzyme residual activity at 1 uM incubated for 30 mins in presence of ATP by ADP-Glo kinase assay relative to control; format: protein-complex assay
# [16] = molecular target: T4, Serine/threonine-protein kinase pim-1 (Homo sapiens, UniProt P11309); experiment: Inhibition of recombinant human PIM-1 extracted from bacteria using histone H1 as substrate assessed as enzyme residual activity at 10 uM incubated for 30 mins in presence of ATP by ADP-Glo kinase assay relative to control
# Target sequence in this assay (P11309 whole entry, looked up): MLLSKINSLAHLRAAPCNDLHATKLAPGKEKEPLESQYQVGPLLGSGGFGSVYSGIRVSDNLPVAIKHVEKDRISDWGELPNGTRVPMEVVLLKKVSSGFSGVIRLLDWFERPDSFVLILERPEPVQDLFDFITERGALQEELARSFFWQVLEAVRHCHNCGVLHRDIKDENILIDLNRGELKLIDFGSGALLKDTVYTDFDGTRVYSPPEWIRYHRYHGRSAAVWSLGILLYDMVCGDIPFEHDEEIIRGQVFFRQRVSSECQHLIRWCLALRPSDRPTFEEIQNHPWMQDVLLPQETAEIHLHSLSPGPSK
# [17] = molecular target: T4, Serine/threonine-protein kinase pim-1; experiment: Inhibition of recombinant human PIM-1 extracted from bacteria using histone H1 as substrate assessed as enzyme residual activity at 1 uM incubated for 30 mins in presence of ATP by ADP-Glo kinase assay relative to control
# Target sequence in this assay (P11309 whole entry, looked up): as above
# SH-SY5Y = experiment: Antiproliferative activity against human SH-SY5Y cells assessed as inhibition of cell viability incubated for 48 hrs by MTS assay; format: functional, cell-based
# U2OS = experiment: Antiproliferative activity against human U2OS cells assessed as inhibition of cell viability incubated for 48 hrs by MTS assay; format: functional, cell-based
# [18] = molecular target: Dual specificity protein kinase CLK1 (Mus musculus, UniProt P22518); experiment: Inhibition of recombinant mouse CLK1 extracted from bacteria using GRSRSRSRSRSR as substrate incubated for 30 mins in presence of ATP by ADP-Glo kinase assay
# Dual specificity protein kinase CLK1, sequence (P22518 whole entry, the tested form may be a part): as the sequence (P22518 whole entry, looked up, the tested form may be a part) above
# [19] = molecular target: Dual specificity tyrosine-phosphorylation-regulated kinase 1A (Rattus norvegicus, UniProt Q63470); experiment: Inhibition of recombinant rat DYRK1A kinase domain (1 to 499 residues) extracted from bacteria using KKISGRLSPIMTEQ as substrate incubated for 30 mins in presence of ATP by ADP-Glo kinase assay
# [20] = molecular target: T4, Serine/threonine-protein kinase pim-1; experiment: Inhibition of recombinant human PIM-1 extracted from bacteria using histone H1 as substrate incubated for 30 mins in presence of ATP by ADP-Glo kinase assay
# Target sequence in this assay (P11309 whole entry): as the sequence (P11309 whole entry, looked up) above
# [21] = Cytotoxicity against human hTERT-RPE1 cells assessed as effect on cell viability incubated for 48 hrs by MTS assay; format: toxicity, cell-based, TERT-RPE1
# HBL-100 = experiment: Antiproliferative activity against human HBL-100 cells assessed as inhibition of cell viability incubated for 48 hrs by MTS assay; format: functional, cell-based; settings: HBL-100, 48 h
# HCT-116 = experiment: Antiproliferative activity against human HCT-116 cells assessed as inhibition of cell viability incubated for 48 hrs by MTS assay; format: functional, cell-based; settings: HCT-116, 48 h
# [22] = molecular target: T1, Serine/threonine-protein kinase haspin (Homo sapiens); experiment: Inhibition of haspin in human U2OS cells assessed as at 5 uM incubated for 16 hrs by DAPI staining based immunofluorescence analysis relative to control; format: cell-based
Compound,Activity [1] [%],Activity [2] [%],Activity [4] [%],Activity [5] [%],Activity [6] [%],Activity [7] [%],Activity [8] [%],Activity [9] [%],Activity [10] [%],Activity [11] [%],Activity [12] [%],Activity [13] [%],Activity [14] [%],Activity [15] [%],Activity [16] [%],Activity [17] [%],other results
c1cc2c(ccc3cc[nH]c32)cn1,9,39,31,43,80,50,45,59,76,82,94,95,63,77,38,64,IC50 [3]: 258 nM
O=C1CCC(N2C(=O)c3cccc(NCCOCCOCCOCCn4cc(-c5ccncc5)c5cc6ccncc6cc54)c3C2=O)C(=O)N1 (stereo unspecified),71,67,64,89,100,90,96,97,81,84,84,99,100,100,64,74,
O=C1CCC(N2C(=O)c3cccc(NCCOCCOCCOCCn4ccc5cc6ccncc6cc54)c3C2=O)C(=O)N1 (stereo unspecified),83,95,87,94,100,100,88,91,81,93,97,100,100,100,86,95,
O=C1CCC(N2C(=O)c3cccc(NCCOCCOCCOCCn4cc(Br)c5cc6ccncc6cc54)c3C2=O)C(=O)N1 (stereo unspecified),86,98,,,,,,,,,,,,,,,
Cn1cc(-c2ccccn2)c2cc3ccncc3cc21,7,25,23,36,73,63,49,77,53,67,89,100,100,100,38,74,IC50 [3]: 173 nM
Cn1cc(-c2ccncc2)c2cc3ccncc3cc21,5,7,9,13,35,23,59,97,92,74,42,72,44,63,18,37,EC50 (SH-SY5Y): 6400 nM; EC50 (U2OS): 3200 nM; IC50 [3]: 23.6 nM; IC50 [18]: 546 nM; IC50 [19]: 339 nM; IC50 [20]: 1270 nM; EC50 at 48 h [21]: 2300 nM; EC50 (HBL-100): 6600 nM; EC50 (HCT-116): 2100 nM; inhibition [22]: 37%
c1cc2cc3c(cc2cn1)NCC3,28,66,66,80,98,68,62,75,80,78,96,92,88,89,70,65,
O=C1CCC(N2C(=O)c3cccc(NCCOCCOCCOCCn4cc(I)c5cc6ccncc6cc54)c3C2=O)C(=O)N1 (stereo unspecified),100,80,,,,,,,,,,,,,,,
O=C1CCC(N2C(=O)c3cccc(NCCOCCOCCOCCNC(=O)c4c[nH]c5cc6cnccc6cc45)c3C2=O)C(=O)N1 (stereo unspecified),60,74,84,97,97,90,86,100,85,82,99,100,100,100,75,67,
O=C1CCC(N2C(=O)c3cccc(NCCOCCOCCOCCn4cc(-c5cccnc5)c5cc6ccncc6cc54)c3C2=O)C(=O)N1 (stereo unspecified),71,70,74,79,90,65,81,91,74,86,91,100,100,100,66,61,
O=C1CCC(N2C(=O)c3cccc(NCCOCCOCCOCCn4cc(Cl)c5cc6ccncc6cc54)c3C2=O)C(=O)N1 (stereo unspecified),90,78,,,,,,,,,,,,,,,
